The text below walks through data of ChEMBL document CHEMBL4825726, “Structural insights in galectin-1-glycan recognition: Relevance of the glycosidic linkage and the N-acetylation pattern of sugar moieties” (Bioorg Med Chem, 2021).

SMILES strings stand for the structures. pIC50, pKd: −log10 of the molar value.

The target in assay [1] is T1, Galectin-1 (Homo sapiens, UniProt P09382). As to the kind of experiment: Binding affinity to human Gal-1 assessed as change in entropy by isothermal titration calorimetry. (In ITC the heat of successive injections is recorded.)
The target of assay [2] is T1, Galectin-1. Briefly: Binding affinity to human Gal-1 assessed as change in enthalpy by isothermal titration calorimetry.
Assay [3] addresses T1, Galectin-1. Briefly: Binding affinity to human Gal-1 assessed as dissociation constant by isothermal titration calorimetry.
Assay [4] addresses T1, Galectin-1. As to the kind of experiment: Binding affinity to human Gal-1 assessed as inhibition of Gal-1 binding to immobilized asialofetuin pretreated with Gal-1 for 2 hrs followed by incubation with asialofetuin for 2 hrs by competitive solid phase assay. Particulars: for pIC50: read-out: IC50; call rule not given here.
For assay [5], the target named is T1, Galectin-1. As to the kind of experiment: Binding affinity to human Gal-1 assessed as Gibbs free energy change by isothermal titration calorimetry.
For assay [6], the target named is T1, Galectin-1. As to the kind of experiment: Binding affinity to human Gal-1 assessed as inhibition of Gal-1 binding to immobilized asialofetuin pretreated with Gal-1 for 2 hrs followed by incubation with asialofetuin for 2 hrs by competitive solid phase assay relative to lactose. Particulars: time 4.0 hrs.

T1 sequence (P09382 whole entry): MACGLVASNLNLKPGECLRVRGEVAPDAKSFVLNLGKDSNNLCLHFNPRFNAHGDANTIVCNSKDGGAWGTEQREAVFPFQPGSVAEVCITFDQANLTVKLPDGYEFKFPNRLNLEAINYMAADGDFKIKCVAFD

`OC[C@H]1O[C@@H](O[C@H]2[C@H](O)[C@@H](O)C(O)O[C@@H]2CO)[C@H](O)[C@@H](O)[C@H]1O` (stereo partly specified): on Galectin-1 [1], the -TdeltaS was determined as 5.71 kcal/mol and the deltaS was -80.2 J/mol.K. For the same compound, the deltaH on Galectin-1 [2] was -10.8 kcal/mol.

In the case of `OC[C@H]1O[C@@H](OC[C@H]2OC(O)[C@H](O)[C@@H](O)[C@@H]2O)[C@H](O)[C@@H](O)[C@H]1O` (stereo partly specified), the -TdeltaS at Galectin-1 [1] was -2.13 kcal/mol. Further, the deltaH at Galectin-1 [2] is -1.79 kcal/mol. For the same compound, the pKd at Galectin-1 [3] was 2.88. Also, the IC50 entry at Galectin-1 [4] is “Not Active”. The deltaG at Galectin-1 [5] is -3.92 kcal/mol.

With `CC(=O)N[C@H]1C(O)O[C@H](CO)[C@@H](O[C@@H]2O[C@H](CO)[C@H](O)[C@H](O)[C@H]2O)[C@@H]1O` (stereo partly specified), on Galectin-1 [1], the -TdeltaS was 6.55 kcal/mol and the deltaS is -91.9 J/mol.K. On Galectin-1 [2], the deltaH is -12 kcal/mol. The Ratio at Galectin-1 [6] stood at 2.37. The pKd at Galectin-1 [3] is 4.02. The pIC50 on Galectin-1 [4] is 2.71. For the same compound, the deltaG at Galectin-1 [5] was -5.47 kcal/mol.

In the case of `CC(=O)N[C@H]1C(O)O[C@H](CO)[C@@H](O)[C@@H]1O[C@@H]1O[C@H](CO)[C@H](O)[C@H](O)[C@H]1O` (stereo partly specified), on Galectin-1 [1], the -TdeltaS was 6.21 kcal/mol and the deltaS was -87.2 J/mol.K. Further, at Galectin-1 [2], the deltaH was -11.4 kcal/mol. For the same compound, the Ratio at Galectin-1 [6] was found to be 2.37. Moreover, the pKd at Galectin-1 [3] was 3.79. Besides, the pIC50 on Galectin-1 [4] was 2.69. Besides, the deltaG at Galectin-1 [5] was -5.19 kcal/mol.

Turning to `CC(=O)N[C@H]1C(O)O[C@H](CO[C@@H]2O[C@H](CO)[C@H](O)[C@H](O)[C@H]2O)[C@@H](O)[C@@H]1O` (stereo partly specified), on Galectin-1 [1], the -TdeltaS is -0.215 kcal/mol and the deltaS came to 3 J/mol.K. Besides, the deltaH on Galectin-1 [2] was -4.28 kcal/mol. The Ratio at Galectin-1 [6] stood at 0.36. Further, the pKd at Galectin-1 [3] was 3.30. Moreover, at Galectin-1 [4], the pIC50 was 1.89. For the same compound, the deltaG on Galectin-1 [5] is -4.49 kcal/mol.

In the case of `CC(=O)N[C@H]1[C@H](O[C@H]2[C@H](O)[C@@H](NC(C)=O)C(O)O[C@@H]2CO)O[C@H](CO[C@@H]2O[C@H](CO)[C@H](O)[C@H](O)[C@H]2O)[C@@H](O)[C@@H]1O` (stereo partly specified), on Galectin-1 [1], the -TdeltaS is -0.598 kcal/mol and the deltaS turned out to be 8.4 J/mol.K. In addition, on Galectin-1 [2], the deltaH is -3.66 kcal/mol. Moreover, on Galectin-1 [6], the Ratio worked out at 0.22. For the same compound, at Galectin-1 [3], the pKd was 3.11. The pIC50 on Galectin-1 [4] was 1.67. For the same compound, at Galectin-1 [5], the deltaG was -4.25 kcal/mol.

What is called pKd is −log10 of the Kd, conventionally taken in molar units. The pIC50 is the negative decadic logarithm of the IC50, by convention in mol/L.
